# Assay results published in the NIST ThermoML archive (doi:10.1016/j.tca.2018.04.002).
# Numbers after ± are expanded uncertainties.
# How the values were obtained:
# [1] = Molar enthalpy of transition or fusion; conditions: Crystal; DSC
# [2] = Crystal
structure (smiles),measurement,setting,value
CCCCCCCCCCCC(=O)O [dodecanoic acid],Molar enthalpy of transition or fusion,[1],10.4 ± 2.08 kcal/mol
same,thermal conductivity,"[2]; 296.15 K, 101.33 kPa, Hot disk method",0.394 ± 0.081 W/m/K
same,Triple point temperature,[2]; DSC,320.35 ± 4.1 K
